{"source": "paper PMC2970562", "about": "“High-Affinity Inhibitors of Human NAD^+-Dependent 15-Hydroxyprostaglandin Dehydrogenase: Mechanisms of Inhibition and Structure-Activity Relationships” (PLoS ONE, 2010)", "key": {"[1]": {"biological_target": "recombinant human placental 15-PGDH", "details": "cited from earlier work; for potency as inhibitor of 15-PGDH: in words ref 22"}, "human 15-PGDH [2]": {"biological_target": "T1, human 15-PGDH (Homo sapiens, UniProt P15428)", "T1 construct": "comprising residues 3–256 of the human HPGD gene (GenBank identifier: 1203982); His6 (GHHHHHH, behind the TEV site) (C, cleaved yes); made in house; host or cells: E. coli BL21(DE3)-R3", "T1 sequence (P15428 3-256)": "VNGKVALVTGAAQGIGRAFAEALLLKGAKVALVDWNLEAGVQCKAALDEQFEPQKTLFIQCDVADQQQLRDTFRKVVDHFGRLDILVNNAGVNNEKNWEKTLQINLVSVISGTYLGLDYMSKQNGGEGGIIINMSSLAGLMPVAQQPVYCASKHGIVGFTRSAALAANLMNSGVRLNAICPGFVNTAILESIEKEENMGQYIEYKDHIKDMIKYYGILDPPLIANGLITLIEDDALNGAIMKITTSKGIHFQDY", "test": "Substrate (PGE2) and cofactor (NAD+) titrations, mechanism of action, global fitting", "type": "biochemical", "details": "for Competitive (CM), fit residual Chi^2 value / Mixed-mode (MM), fit residual Chi^2 value / Noncompetitive (NM), fit residual Chi^2 value / Uncompetitive (UM), fit residual Chi^2 value: global fitting; for Titration of NAD^+ K m / Titration of NAD^+ V max [µmol/(min×mg)] / Titration of NAD^+ k cat/K m[×10^6] / Titration of NAD^+ k cat[1/sec]: 30 µM PGE2", "description": "Kinetic studies were performed in 100 mM Tris buffer pH 8.0, containing 0.01% Tween-20 and 10 nM 15-PGDH enzyme. […] All inhibitor compounds were dissolved in 10% (v/v) DMSO at varying concentrations from which they were applied at 1∶5 ratio (resulting in a final concentration of 2% (v/v) DMSO in all assays). For each experiment an aliquot of purified enzyme was thawed freshly and pre-diluted to 10 µM in buffer I (5 mM Tris/HCl, pH 8.0, 150 mM NaCl, 0.01% Tween-20). All experiments were performed in white 384-well PCR microplates (Bio-Rad Laboratories, Inc.) in final assay volumes of 20 µL. Twelve-point compound titrations were set up from serially diluted stock solutions in 10% (v/v) DMSO. […] The initial rates recorded in compound titrations were plotted against -log[compound], and non-linear regression (Levenberg-Marquardt) fitting of the dose-response curve to the Hill equation [47] was performed to derive the IC50, using PRISM 5.0 (GraphPad Software, Inc.). For substrate/cofactor titrations, curves with initial rates plotted against the concentration of substrate or cofactor were fitted to the Michaelis-Menten equation, to derive maximal activities, V max, and Michaelis constants, K m. Fitting qualities were judged from the goodness of fit (R^2>0.98)."}, "human 15-PGDH [3]": {"biological_target": "T1, human 15-PGDH", "test": "Differential scanning fluorimetry (DSF), thermal stabilization", "type": "binding", "details": "for ∆Tm [°C] NAD+: with 200 µM NAD+; for ∆Tm [°C] NAD+ / ∆Tm [°C] NADH / ∆Tm [°C] apo: 1 µM protein, compound 50 or 250 µM, N/A = no unfolding transition observed in DSF; for ∆Tm [°C] NADH: with 200 µM NADH; for ∆Tm [°C] apo: without cofactor"}, "ALDH1A1": {"biological_target": "T2, ALDH1A1 (Homo sapiens, UniProt P00352)", "T2 sequence (P00352 1-501)": "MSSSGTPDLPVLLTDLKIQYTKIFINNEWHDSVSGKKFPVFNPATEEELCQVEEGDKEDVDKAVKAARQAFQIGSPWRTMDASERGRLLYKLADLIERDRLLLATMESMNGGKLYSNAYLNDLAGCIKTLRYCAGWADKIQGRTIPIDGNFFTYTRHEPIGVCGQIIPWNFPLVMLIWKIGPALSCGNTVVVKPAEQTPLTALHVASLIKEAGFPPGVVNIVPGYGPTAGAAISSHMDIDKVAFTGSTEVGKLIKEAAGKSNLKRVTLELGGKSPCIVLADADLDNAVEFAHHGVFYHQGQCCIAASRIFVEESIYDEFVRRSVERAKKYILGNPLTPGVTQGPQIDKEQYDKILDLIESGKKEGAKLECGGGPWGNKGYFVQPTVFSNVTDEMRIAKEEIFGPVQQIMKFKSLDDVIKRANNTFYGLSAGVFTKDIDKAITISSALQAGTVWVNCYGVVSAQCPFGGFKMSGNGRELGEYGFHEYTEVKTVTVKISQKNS", "test": "Selectivity screen, aldehyde dehydrogenase 1 (PubChem Assay ID 1030)", "type": "biochemical", "protocol": "The list also includes two SDR enzymes, hydroxyacyl dehydrogenase (HADH2, also known as type-10 hydroxysteroid dehydrogenase, HSD17β10; PubChem Assay ID 886) and type-4 hydroxysteroid dehydrogenase (HSD17β4; PubChem Assay ID 893), and a medium-chain dehydrogenase/reductase (MDR), aldehyde dehydrogenase 1 (ALDH1A1; PubChem Assay ID 1030), each of which was tested using a similar experimental protocol to that used for 15-PGDH."}, "human 15-PGDH [4]": {"biological_target": "T1, human 15-PGDH", "test": "qHTS and 24-point re-test: fluorescence assay of NAD+ reduction to NADH on PGE2 oxidation (PubChem AID 894)", "type": "biochemical", "details": "potency in 24-point titrations on re-test; 20 nM 15-PGDH, 1 mM NAD+, 30 µM PGE2, pH 8.0; read-out: qHTS IC50", "how_it_was_run": "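NADH fluorescence (ex 340/em 450 nm) followed kinetically over a 2-min initial rate. Data normalized to no-enzyme and no-compound controls; four-parameter Hill fit.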"}}}
{"smiles": "CCOC(=O)c1ccc(N=Nc2ccc(O)c(CC(=O)O)c2)cc1", "note": "[CAY10397]", "values": [{"measurement": "Ki", "setting": "[1]; human 15-PGDH ref 24", "value": 110, "unit": "nM"}]}
{"smiles": "CC1(COc2ccc(CC3SC(=O)NC3=O)cc2)CCCCC1", "note": "(stereo not drawn) [Ciglitazone]", "values": [{"measurement": "IC50", "setting": "[1]; recombinant human placental 15-PGDH ref 22", "value": 2700, "unit": "nM"}]}
{"smiles": "N#Cc1ccccc1CSc1nc2cc(Br)c[nH]c-2n1", "note": "[Compound 61]", "values": [{"measurement": "Sum-of-squares F-test p, UM vs. MM", "setting": "human 15-PGDH [2]; NAD^+ titration", "value": "UM vs. MM: p = 0.1058"}, {"measurement": "Sum-of-squares F-test p, CM vs. MM", "setting": "human 15-PGDH [2]; PGE2 titration", "value": "CM vs. MM:p = 0.0001"}, {"measurement": "effect on the V max", "setting": "human 15-PGDH [2]; PGE2 titration, in words", "value": "almost no effect"}, {"measurement": "increase in the K m", "setting": "human 15-PGDH [2]; PGE2 titration, inhibitor 50 nM", "value": 3, "unit": "fold"}, {"measurement": "Preferred mode of inhibition", "setting": "human 15-PGDH [2]; PGE2 titration, rejection threshold p = 0.05", "value": "MM (MM, mixed-mode inhibition)"}, {"measurement": "Competitive (CM), fit residual Chi^2 value", "setting": "human 15-PGDH [2]; NAD^+ titration", "value": 0.9507}, {"measurement": "Mixed-mode (MM), fit residual Chi^2 value", "setting": "human 15-PGDH [2]; NAD^+ titration", "value": 0.9841}, {"measurement": "Noncompetitive (NM), fit residual Chi^2 value", "setting": "human 15-PGDH [2]; NAD^+ titration", "value": 0.9834}, {"measurement": "Uncompetitive (UM), fit residual Chi^2 value", "setting": "human 15-PGDH [2]; NAD^+ titration", "value": 0.9837}, {"measurement": "Competitive (CM), fit residual Chi^2 value", "setting": "human 15-PGDH [2]; PGE2 titration", "value": 0.9845}, {"measurement": "Mixed-mode (MM), fit residual Chi^2 value", "setting": "human 15-PGDH [2]; PGE2 titration", "value": 0.9866}, {"measurement": "Noncompetitive (NM), fit residual Chi^2 value", "setting": "human 15-PGDH [2]; PGE2 titration", "value": 0.9800}, {"measurement": "Uncompetitive (UM), fit residual Chi^2 value", "setting": "human 15-PGDH [2]; PGE2 titration", "value": 0.9742}, {"measurement": "mode of inhibition with respect to the cofactor NAD+", "setting": "human 15-PGDH [2]; in words", "value": "uncompetitive"}, {"measurement": "mode of inhibition with respect to the substrate PGE2", "setting": "human 15-PGDH [2]; in words", "value": "competitive inhibition"}, {"measurement": "Titration of PGE2 K m", "setting": "human 15-PGDH [2]; inhibitor 10.0 nM", "value": "7.5 ± 0.5", "unit": "µM"}, {"measurement": "Titration of PGE2 V max[µmol/(min×mg)]", "setting": "human 15-PGDH [2]; inhibitor 10.0 nM", "value": 29.0, "unit": "µmol/min/mg"}, {"measurement": "Titration of PGE2 k cat/K m[×10^6]", "setting": "human 15-PGDH [2]; inhibitor 10.0 nM", "value": "1.8 ×10^6"}, {"measurement": "Titration of NAD^+ K m", "setting": "human 15-PGDH [2]; inhibitor 10.0 nM", "value": "17.0 ± 0.8", "unit": "µM"}, {"measurement": "Titration of NAD^+ V max [µmol/(min×mg)]", "setting": "human 15-PGDH [2]; inhibitor 10.0 nM", "value": 21.1, "unit": "µmol/min/mg"}, {"measurement": "Titration of NAD^+ k cat/K m[×10^6]", "setting": "human 15-PGDH [2]; inhibitor 10.0 nM", "value": "0.6 ×10^6"}, {"measurement": "Titration of NAD^+ k cat[1/sec]", "setting": "human 15-PGDH [2]; inhibitor 10.0 nM", "value": "10.3 ± 0.1", "unit": "s⁻¹"}, {"measurement": "Titration of PGE2 K m", "setting": "human 15-PGDH [2]; inhibitor 50.0 nM", "value": "13.5 ± 1.3", "unit": "µM"}, {"measurement": "Titration of PGE2 V max[µmol/(min×mg)]", "setting": "human 15-PGDH [2]; inhibitor 50.0 nM", "value": 25.6, "unit": "µmol/min/mg"}, {"measurement": "Titration of PGE2 k cat/K m[×10^6]", "setting": "human 15-PGDH [2]; inhibitor 50.0 nM", "value": "0.9 ×10^6"}, {"measurement": "Titration of PGE2 k cat[1/sec]", "setting": "human 15-PGDH [2]; inhibitor 50.0 nM", "value": "12.4 ± 0.3", "unit": "s⁻¹"}, {"measurement": "Titration of NAD^+ K m", "setting": "human 15-PGDH [2]; inhibitor 50.0 nM", "value": "11.1 ± 1.2", "unit": "µM"}, {"measurement": "Titration of NAD^+ V max [µmol/(min×mg)]", "setting": "human 15-PGDH [2]; inhibitor 50.0 nM", "value": 10.2, "unit": "µmol/min/mg"}, {"measurement": "Titration of NAD^+ k cat/K m[×10^6]", "setting": "human 15-PGDH [2]; inhibitor 50.0 nM", "value": "0.4 ×10^6"}, {"measurement": "Titration of NAD^+ k cat[1/sec]", "setting": "human 15-PGDH [2]; inhibitor 50.0 nM", "value": "5.0 ± 0.1", "unit": "s⁻¹"}, {"measurement": "ΔTm in the presence of NAD+", "setting": "human 15-PGDH [3]", "value": "12.2±0.1", "unit": "°C"}, {"measurement": "ΔTm in the presence of NADH", "setting": "human 15-PGDH [3]", "value": "2.9±0.5", "unit": "°C"}, {"measurement": "∆Tm [°C] NAD+", "setting": "human 15-PGDH [3]", "value": 12.2, "unit": "°C"}, {"measurement": "∆Tm [°C] NADH", "setting": "human 15-PGDH [3]", "value": 2.9, "unit": "°C"}, {"measurement": "∆Tm [°C] apo", "setting": "human 15-PGDH [3]", "value": -1.2, "unit": "°C"}, {"measurement": "response against ALDH1A1", "setting": "ALDH1A1; in words", "value": "flat response"}, {"measurement": "IC50", "setting": "ALDH1A1; top concentration 57.5 µM, PubChem Assay ID 1030, read-out: IC50/nM ALDH1A1", "value": "> 57500", "unit": "nM"}]}
{"smiles": "Cc1cc(=O)oc2cc(OCC(=O)N3CCCc4ccccc43)ccc12", "note": "[Compound 79]", "values": [{"measurement": "IC50", "setting": "human 15-PGDH [4]", "value": 1120, "unit": "nM"}, {"measurement": "∆Tm [°C] apo", "setting": "human 15-PGDH [3]", "value": -4.1, "unit": "°C"}]}
{"smiles": "Cc1ccc(-c2nnc(S)n2N=CC=Cc2ccccc2[N+](=O)[O-])cc1", "note": "[Compound 80]", "values": [{"measurement": "IC50", "setting": "human 15-PGDH [4]", "value": 501, "unit": "nM"}, {"measurement": "∆Tm [°C] NAD+", "setting": "human 15-PGDH [3]", "value": 4.5, "unit": "°C"}, {"measurement": "∆Tm [°C] NADH", "setting": "human 15-PGDH [3]", "value": 0.2, "unit": "°C"}]}
{"smiles": "CNC(C)C(O)c1ccccc1.O=S(=O)(O)O", "note": "(stereo not drawn) [Compound 84]", "values": [{"measurement": "IC50", "setting": "human 15-PGDH [4]", "value": 1410, "unit": "nM"}, {"measurement": "∆Tm [°C] NAD+", "setting": "human 15-PGDH [3]", "value": 1.5, "unit": "°C"}, {"measurement": "∆Tm [°C] NADH", "setting": "human 15-PGDH [3]", "value": -0.1, "unit": "°C"}, {"measurement": "∆Tm [°C] apo", "setting": "human 15-PGDH [3]", "value": "0.7 ± 0.1", "unit": "°C"}]}
{"smiles": "COc1ccc2c(c1)c(CC(=O)O)c(C)n2C(=O)c1ccc(Cl)cc1", "note": "[indomethacin]", "values": [{"measurement": "potency as inhibitor of 15-PGDH", "setting": "[1]", "value": "micromolar potencies"}]}
{"smiles": "O=C(O)c1cccnc1Nc1cccc(C(F)(F)F)c1", "note": "[niflumic acid]", "values": [{"measurement": "potency as inhibitor of 15-PGDH", "setting": "[1]", "value": "micromolar potencies"}]}
{"smiles": "CC1=C(CC(=O)O)c2cc(F)ccc2/C1=C\\c1ccc([S+](C)[O-])cc1", "note": "(stereo not drawn) [sulindac]", "values": [{"measurement": "potency as inhibitor of 15-PGDH", "setting": "[1]", "value": "micromolar potencies"}]}
